Target: T1, PaD2HGDH; Pseudomonas aeruginosa D-2-hydroxyglutarate dehydrogenase (Pseudomonas aeruginosa, UniProt Q9I6H4)
T1 construct: gene PA0317; recombinant from pET20b(+) harboring PA0317 (GenScript), purified to homogeneity; FAD- and Zn2+-containing
T1 sequence (Q9I6H4 1-464): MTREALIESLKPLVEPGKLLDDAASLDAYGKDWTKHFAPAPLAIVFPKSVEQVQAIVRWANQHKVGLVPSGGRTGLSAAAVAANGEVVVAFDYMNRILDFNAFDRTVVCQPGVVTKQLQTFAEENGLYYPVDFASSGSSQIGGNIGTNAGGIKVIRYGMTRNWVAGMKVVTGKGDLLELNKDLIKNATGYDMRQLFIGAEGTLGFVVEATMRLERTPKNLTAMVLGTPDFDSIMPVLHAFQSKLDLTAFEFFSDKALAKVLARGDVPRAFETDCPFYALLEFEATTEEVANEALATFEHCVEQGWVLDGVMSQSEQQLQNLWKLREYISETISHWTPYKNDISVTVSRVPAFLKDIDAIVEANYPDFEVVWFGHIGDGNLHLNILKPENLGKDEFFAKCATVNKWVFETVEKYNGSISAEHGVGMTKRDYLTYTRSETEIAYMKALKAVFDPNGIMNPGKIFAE
Test: UV-visible absorption of enzyme-bound flavin, anaerobic reduction by D-malate
Assay type: binding
Conditions: 1 mM ZnCl2, pH 10.0, 25 °C; co-purified bound cofactor

Cc1cc2nc3c(=O)[nH]c(=O)nc-3n(C[C@H](O)[C@H](O)[C@H](O)COP(=O)(O)OP(=O)(O)OC[C@H]3O[C@@H](n4cnc5c(N)ncnc54)[C@H](O)[C@@H]3O)c2cc1C [FAD]
UV-visible absorption of enzyme-bound flavin, anaerobic reduction by D-malate: characteristic properties of a fully reduced PaD2HGDH-bound flavin, as previously reported

Source: paper PMC11843331, “Metal-Triggered FAD Reduction in D-2-Hydroxyglutarate Dehydrogenase from Pseudomonas aeruginosa PAO1” (ACS Bio & Med Chem Au, 2024)
